Laboratory results from patent publication US20230123334A1, “AMINO LIPID COMPOUND, PREPARATION METHOD THEREFOR, AND APPLICATION THEREOF” (SHENZHEN SHENXIN BIOTECHNOLOGY CO., LTD., priority 2020, published 2023).

Tested on: HEK293 cells
Assay: Preliminary screening as mRNA vectors, EGFP mRNA transfection of HEK293 cells
Format: cell-based
Conditions: HEK293 cells, 96-well plates, EGFP mRNA 50 ng per well; percentage of GFP fluorescent cells relative to total number of cells (Hoechst)
Procedure, shortened: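 HEK293 cells in DMEM plus 10% FBS transfected in 96-well format with 50 ng EGFP mRNA per well; Lipofectamine2000 served as positive control. Read-out is the percentage of GFP-fluorescent cells among total cells, counted by Hoechst nuclear stain.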

SMILES	Absolute mRNA transfection efficiency in HEK293 cells [%]
CCCCCCCCCCCCCCCNc1nc(NCCN2CCCCC2)nc(N(CCCCCCCCCCCC)CCCCCCCCCCCC)n1 [N15^2N12D4]	2.9
CCCCCCCCCCCCCCCNc1nc(NCCN2CCN(C)CC2)nc(N(CCCCCCCCCCCC)CCCCCCCCCCCC)n1 [N15^2N12D5]	3.7
CCCCCCCCCCCCCCCNc1nc(NCCCN(C)C)nc(N(CCCCCCCCCCCC)CCCCCCCCCCCC)n1 [N15^2N12D6]	9.0
CCCCCCCCCCCCCCCNc1nc(NCCN(CC)CC)nc(N(CCCCCCCCCCCC)CCCCCCCCCCCC)n1 [N15^2N12D7]	0.0
CCCCCCCCCCCCCCCNc1nc(NCCCN2CCOCC2)nc(N(CCCCCCCCCCCC)CCCCCCCCCCCC)n1 [N15^2N12D8]	0.9
CCCCCCCCCCCCCCCNc1nc(NCCCN2CCN(C)CC2)nc(N(CCCCCCCCCCCC)CCCCCCCCCCCC)n1 [N15^2N12D9]	0.0
CCCCCCCCCCCCCCCNc1nc(NCC2CCN(C)CC2)nc(N(CCCCCCCCCCCC)CCCCCCCCCCCC)n1 [N15^2N12D10]	3.5
CCCCCCCCCCCCCCCCNc1nc(NCCN(C)C)nc(N(CCCCCCCCCCCC)CCCCCCCCCCCC)n1 [N16^2N12D1]	3.4
CCCCCCCCCCCCCCCCNc1nc(NCCN2CCOCC2)nc(N(CCCCCCCCCCCC)CCCCCCCCCCCC)n1 [N16^2N12D2]	0.0
CCCCCCCCCCCCCCCCNc1nc(NCCN2CCCC2)nc(N(CCCCCCCCCCCC)CCCCCCCCCCCC)n1 [N16^2N12D3]	4.0
CCCCCCCCCCCCCCCCNc1nc(NCCN2CCCCC2)nc(N(CCCCCCCCCCCC)CCCCCCCCCCCC)n1 [N16^2N12D4]	0.0
CCCCCCCCCCCCCCCCNc1nc(NCCN2CCN(C)CC2)nc(N(CCCCCCCCCCCC)CCCCCCCCCCCC)n1 [N16^2N12D5]	0.0
CCCCCCCCCCCCCCCCNc1nc(NCCCN(C)C)nc(N(CCCCCCCCCCCC)CCCCCCCCCCCC)n1 [N16^2N12D6]	0.0
CCCCCCCCCCCCCCCCNc1nc(NCCN(CC)CC)nc(N(CCCCCCCCCCCC)CCCCCCCCCCCC)n1 [N16^2N12D7]	3.0
CCCCCCCCCCCCCCCCNc1nc(NCCCN2CCOCC2)nc(N(CCCCCCCCCCCC)CCCCCCCCCCCC)n1 [N16^2N12D8]	4.3
CCCCCCCCCCCCCCCCNc1nc(NCCCN2CCN(C)CC2)nc(N(CCCCCCCCCCCC)CCCCCCCCCCCC)n1 [N16^2N12D9]	0.0
CCCCCCCCCCCCCCCCNc1nc(NCC2CCN(C)CC2)nc(N(CCCCCCCCCCCC)CCCCCCCCCCCC)n1 [N16^2N12D10]	0.0
CCCCCCCCCCCCCCCCCCNc1nc(NCCN(C)C)nc(N(CCCCCCCCCCCC)CCCCCCCCCCCC)n1 [N18^2N12D1]	0.4
CCCCCCCCCCCCCCCCCCNc1nc(NCCN2CCOCC2)nc(N(CCCCCCCCCCCC)CCCCCCCCCCCC)n1 [N18^2N12D2]	0.1
CCCCCCCCCCCCCCCCCCNc1nc(NCCN2CCCC2)nc(N(CCCCCCCCCCCC)CCCCCCCCCCCC)n1 [N18^2N12D3]	3.4
CCCCCCCCCCCCCCCCCCNc1nc(NCCN2CCCCC2)nc(N(CCCCCCCCCCCC)CCCCCCCCCCCC)n1 [N18^2N12D4]	1.2
CCCCCCCCCCCCCCCCCCNc1nc(NCCN2CCN(C)CC2)nc(N(CCCCCCCCCCCC)CCCCCCCCCCCC)n1 [N18^2N12D5]	0.7
CCCCCCCCCCCCCCCCCCNc1nc(NCCCN(C)C)nc(N(CCCCCCCCCCCC)CCCCCCCCCCCC)n1 [N18^2N12D6]	2.1
CCCCCCCCCCCCCCCCCCNc1nc(NCCN(CC)CC)nc(N(CCCCCCCCCCCC)CCCCCCCCCCCC)n1 [N18^2N12D7]	0.7
CCCCCCCCCCCCCCCCCCNc1nc(NCCCN2CCOCC2)nc(N(CCCCCCCCCCCC)CCCCCCCCCCCC)n1 [N18^2N12D8]	2.3
CCCCCCCCCCCCCCCCCCNc1nc(NCCCN2CCN(C)CC2)nc(N(CCCCCCCCCCCC)CCCCCCCCCCCC)n1 [N18^2N12D9]	0.6
CCCCCCCCCCCCCCCCCCNc1nc(NCC2CCN(C)CC2)nc(N(CCCCCCCCCCCC)CCCCCCCCCCCC)n1 [N18^2N12D10]	2.2

Tested on: HEK293 cells
Assay: Preliminary screening as DNA vectors, GFP transfection of HEK293 cells
Format: cell-based
Conditions: HEK293 cells; lipid/DOPE liposome with 75 ng plasmid DNA (psin-EGFP-IRES-Puro); number of cells expressing GFP divided by total number of nuclei (Hoechst)
Procedure, shortened: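 HEK293 cells in DMEM/10% FBS transfected with 75 ng EGFP plasmid per well complexed with amino lipid/DOPE liposomes in pH 5.6 sodium acetate. Hoechst nuclear stain added 20-24 h post-transfection, then cells cultured another 20-24 h. Confocal imaging gives GFP-positive cells as % of total nuclei.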

SMILES	Absolute DNA transfection efficiency in HEK293 cells [%]
CCCCCCCCCCCCCCCNc1nc(NCCN2CCCCC2)nc(N(CCCCCCCCCCCC)CCCCCCCCCCCC)n1 [N15^2N12D4]	2.1
CCCCCCCCCCCCCCCNc1nc(NCCN2CCN(C)CC2)nc(N(CCCCCCCCCCCC)CCCCCCCCCCCC)n1 [N15^2N12D5]	2.8
CCCCCCCCCCCCCCCNc1nc(NCCCN(C)C)nc(N(CCCCCCCCCCCC)CCCCCCCCCCCC)n1 [N15^2N12D6]	6.3
CCCCCCCCCCCCCCCNc1nc(NCCN(CC)CC)nc(N(CCCCCCCCCCCC)CCCCCCCCCCCC)n1 [N15^2N12D7]	1.3
CCCCCCCCCCCCCCCNc1nc(NCCCN2CCOCC2)nc(N(CCCCCCCCCCCC)CCCCCCCCCCCC)n1 [N15^2N12D8]	0.9
CCCCCCCCCCCCCCCNc1nc(NCCCN2CCN(C)CC2)nc(N(CCCCCCCCCCCC)CCCCCCCCCCCC)n1 [N15^2N12D9]	1.7
CCCCCCCCCCCCCCCNc1nc(NCC2CCN(C)CC2)nc(N(CCCCCCCCCCCC)CCCCCCCCCCCC)n1 [N15^2N12D10]	0.0
CCCCCCCCCCCCCCCCNc1nc(NCCN(C)C)nc(N(CCCCCCCCCCCC)CCCCCCCCCCCC)n1 [N16^2N12D1]	0.0
CCCCCCCCCCCCCCCCNc1nc(NCCN2CCOCC2)nc(N(CCCCCCCCCCCC)CCCCCCCCCCCC)n1 [N16^2N12D2]	0.4
CCCCCCCCCCCCCCCCNc1nc(NCCN2CCCC2)nc(N(CCCCCCCCCCCC)CCCCCCCCCCCC)n1 [N16^2N12D3]	2.0
CCCCCCCCCCCCCCCCNc1nc(NCCN2CCCCC2)nc(N(CCCCCCCCCCCC)CCCCCCCCCCCC)n1 [N16^2N12D4]	3.2
CCCCCCCCCCCCCCCCNc1nc(NCCN2CCN(C)CC2)nc(N(CCCCCCCCCCCC)CCCCCCCCCCCC)n1 [N16^2N12D5]	0.6
CCCCCCCCCCCCCCCCNc1nc(NCCCN(C)C)nc(N(CCCCCCCCCCCC)CCCCCCCCCCCC)n1 [N16^2N12D6]	0.5
CCCCCCCCCCCCCCCCNc1nc(NCCN(CC)CC)nc(N(CCCCCCCCCCCC)CCCCCCCCCCCC)n1 [N16^2N12D7]	1.1
CCCCCCCCCCCCCCCCNc1nc(NCCCN2CCOCC2)nc(N(CCCCCCCCCCCC)CCCCCCCCCCCC)n1 [N16^2N12D8]	0.4
CCCCCCCCCCCCCCCCNc1nc(NCCCN2CCN(C)CC2)nc(N(CCCCCCCCCCCC)CCCCCCCCCCCC)n1 [N16^2N12D9]	0.5
CCCCCCCCCCCCCCCCNc1nc(NCC2CCN(C)CC2)nc(N(CCCCCCCCCCCC)CCCCCCCCCCCC)n1 [N16^2N12D10]	1.5
CCCCCCCCCCCCCCCCCCNc1nc(NCCN(C)C)nc(N(CCCCCCCCCCCC)CCCCCCCCCCCC)n1 [N18^2N12D1]	1.0
CCCCCCCCCCCCCCCCCCNc1nc(NCCN2CCOCC2)nc(N(CCCCCCCCCCCC)CCCCCCCCCCCC)n1 [N18^2N12D2]	0.0
CCCCCCCCCCCCCCCCCCNc1nc(NCCN2CCCC2)nc(N(CCCCCCCCCCCC)CCCCCCCCCCCC)n1 [N18^2N12D3]	1.5
CCCCCCCCCCCCCCCCCCNc1nc(NCCN2CCCCC2)nc(N(CCCCCCCCCCCC)CCCCCCCCCCCC)n1 [N18^2N12D4]	0.9
CCCCCCCCCCCCCCCCCCNc1nc(NCCN2CCN(C)CC2)nc(N(CCCCCCCCCCCC)CCCCCCCCCCCC)n1 [N18^2N12D5]	0.7
CCCCCCCCCCCCCCCCCCNc1nc(NCCCN(C)C)nc(N(CCCCCCCCCCCC)CCCCCCCCCCCC)n1 [N18^2N12D6]	1.3
CCCCCCCCCCCCCCCCCCNc1nc(NCCN(CC)CC)nc(N(CCCCCCCCCCCC)CCCCCCCCCCCC)n1 [N18^2N12D7]	0.2
CCCCCCCCCCCCCCCCCCNc1nc(NCCCN2CCOCC2)nc(N(CCCCCCCCCCCC)CCCCCCCCCCCC)n1 [N18^2N12D8]	0.4
CCCCCCCCCCCCCCCCCCNc1nc(NCCCN2CCN(C)CC2)nc(N(CCCCCCCCCCCC)CCCCCCCCCCCC)n1 [N18^2N12D9]	0.6
CCCCCCCCCCCCCCCCCCNc1nc(NCC2CCN(C)CC2)nc(N(CCCCCCCCCCCC)CCCCCCCCCCCC)n1 [N18^2N12D10]	0.7

Tested on: Hela cells
Assay: Transfection of Hela cell line, DNA vectors
Format: cell-based
Conditions: 75 ng plasmid DNA, GFP cells / total cells
Description: 1. The compound (0.01 mmol) prepared in Example 1 was dissolved in 1 mL of anhydrous ethanol. After ultrasonically dissolved, 10 μL of the resultant amino lipid solution in ethanol was taken and mixed with 5 μL of DOPE solution in ethanol (0.01 m), and then to the obtained mixture was added 35 μL of 0.2M sodium acetate buffer (pH 5.6), and 50 μL of liposome solution was prepared by vortex at a constant rotating speed for 30 s. 4 μL was taken from the 50 μL liposome solution and added to 46 μL of 0.02M sodium acetate buffer (pH 5.6), and the final liposome solution was formed by vortex at a constant rotating speed for 30 s. 5 μL was taken from the final liposome solution and mixed with 75 ng plasmid DNA (psin-EGFP-IRES-Puro, Clontech) dissolved in 5 μL of 0.02 M sodium acetate buffer, and was allowed to stay at room temperature for 30 min to form a lipid/DNA transfection complex.
2. 10 μL of the lipid/DNA transfection complex was incubated at room temperature for 30 min, followed by addition of 90 μL of fresh resuspended cells (3-5×10^4 cells) and mixing with a pipette. 100 μL of cells+lipid/DNA complex was transferred to separate wells of a 96-well culture plate immediately, and placed in an incubator containing 5% CO2 at 37° C.
3. Hoechst33258 (Invitrogen) was added at a final concentration of 0.2 μg/mL to the cells 20 to 24 hours after initial cell transfection, and cultured in darkness at 37° C. for 15 min. Afterwards, the cells were washed once with a PBS solution, and then added with medium for culture for 20 to 24 h.
4. The cells were placed in a high-throughput confocal microscope (Molecular Devices ImageXpress), and four visual fields of the image of the cells were captured for each well, and images at three laser wavelengths were captured for each sample: bright field images of cells (FIG. 2(a) and FIG. 2(b)), Hoechst-staining images showing total nuclei (FIG. 2(c) and FIG. 2(d)) and GFP images showing success in transfection with the plasmid DNA and the expression of GFP (FIG. 2(e) and FIG. 2(f)). MetaXpress software was used to separately count the cells in the Hoechst-staining images and GFP images, and then the number of cells expressing GFP was divided by the total number of nuclei to give the absolute cell transfection efficiency. The absolute transfection efficiency was calculated as follows: […]
(§1) Cell line: Hela cells (ATCC 35241)
(§2) Medium: DMEM supplemented with 10% fetal bovine serum (Invitrogen)
(§3) Screening: cell transfection on 96-well plates
Detection (readout): percentage of the number of GFP fluorescent cells relative to the total number of cells (the total number of cells was determined using nucleus dye Hoechst). Lipofectamine2000 (Invitrogen) was used as the positive control, according to the manufacturer's instructions.
Method: the experimental method was basically the same with Example 4.

SMILES	Absolute DNA transfection efficiency in Hela cells [%]
CCCCCCCCCCCSc1nc(NCCN(C)C)nc(SCCCCCCC)n1 [Compound S7S11D1]	5.9
CCCCCCCCCCCSc1nc(NCCN2CCOCC2)nc(SCCCCCCC)n1 [Compound S7S11D2]	13.6
CCCCCCCCCCCSc1nc(NCCN2CCCCC2)nc(SCCCCCCC)n1 [Compound S7S11D4]	7.9

Tested on: Hela cells
Assay: Transfection of Hela cell line, mRNA vectors
Format: cell-based
Conditions: 50 ng EGFP mRNA per well
Description: as §1, §2, §3
Detection (readout): percentage of the number of GFP fluorescent cells relative to the total number of cells (the total number of cells was determined using nucleus dye Hoechst). A commercially available liposome transfection reagent Lipofectamine2000 (Invitrogen) was used as the positive control group, according to the manufacturer's instructions.
Method: the experimental method was basically the same with Example 4, and the mass of EGFP mRNA for transfection was 50 ng per well.

SMILES	Absolute mRNA transfection efficiency in Hela cells [%]
CCCCCCCCCCCSc1nc(NCCN(C)C)nc(SCCCCCCC)n1 [Compound S7S11D1]	5.9
CCCCCCCCCCCSc1nc(NCCN2CCOCC2)nc(SCCCCCCC)n1 [Compound S7S11D2]	13.6
CCCCCCCCCCCSc1nc(NCCN2CCCCC2)nc(SCCCCCCC)n1 [Compound S7S11D4]	7.9
